Data from patent US20240317736A1, “DEUTERATED DERIVATIVE AS ATX INHIBITOR, AND APPLICATION THEREOF” (Xizang Haisco Pharmaceutical Co., Ltd., priority 2020, published 2024).
Like-named read-outs stand apart in the source and are kept apart here.

Key:
[1] = target: T1, autocrine motility factor (Homo sapiens, UniProt Q13822); assay: Inhibition of LPA formation in mixed ex vivo human plasma; type: biochemical; details: 37° C., 2 h
T1 construct: Whole blood was anticoagulated with heparin and centrifuged, and then plasma was collected; from tissue; host or cells: pooled human plasma (heparin-anticoagulated whole blood)
Description: Autocrine motility factor is a phosphodiesterase in plasma that converts lysophosphatidylcholine (LPC) to lysophosphatidic acid (LPA). Therefore, the formation of LPA can be used to evaluate the potency of an autocrine motility factor inhibitor. The potency of the compound in mixed ex vivo human plasma was evaluated.
Whole blood was anticoagulated with heparin and centrifuged, and then plasma was collected. 5 μL of gradient-diluted test compounds or DMSO was added to 95 μL of plasma and incubated at 37° C. for 2 h. After that, a stop buffer (40 mM disodium hydrogen phosphate buffer, containing 30 mM of citric acid, pH=4) was added. LPA in plasma was detected by LC-MSMS before and after incubation. In order to determine the concentration of LPA 18:2 or LPA 20:4 in the plasma in study, calibration standard substances at 20000 ng/mL, 10000 ng/mL, 5000 ng/ml, 2000 ng/ml, 1000 ng/mL, 500 ng/mL, 200 ng/ml, 100 ng/mL, 50 ng/ml, 20 ng/mL and 10 ng/ml for LPA 18:2 or LPA 20:4 were prepared by performing serial dilution in butanol. 3 μL of calibration standard solution was added to 27.0 μL of blank plasmas in each 1.5 mL microcentrifuge tube to produce 1× calibration standard substances. 30.0 μL of standard substances or plasma in study was added to each 1.5 mL microcentrifuge tube. 200 μL of butanol (containing 25.0 ng/mL LPA 17:0 for internal control) was added to each 1.5 mL microcentrifuge tube containing the plasma in study or calibration standard substance. Vortex oscillation was performed for 1 min, and centrifugation was performed at 10000 rpm for 10 min. 180 μL of the supernatant was transferred to a 96-well plate, and LC/MS/MS was used together with the standard substance to quantify the concentration of LPA 18:2 in the plasma. In short, 8 μL of the solution was injected, and LC-MS/MS analysis using an ACQUITY UPLC BEH C18 column (2.1×50 mm, 1.7 μm) was performed, wherein mobile phase A [20 mM NH4OAC aqueous solution (0.1% FA)] and mobile phase B [5 mM NH4OAC aqueous solution/0.2% FA in ACN=5:95] were used. The parameters of a mass spectrometer for LPA 18:2 were optimized by means of deprotonation of molecular ions. For LPA 18:2 at m/z 433.2([M−H]−), LPA 20:4 at 457.2, and LPA 18:2 and LPA 20:4 both at m/z 152.8, abundant product ions were obtained. Quantitative data were obtained in a multiple reaction monitoring (MRM) negative electrospray ionization mode.
The inhibition rates of compounds at different concentrations on LPA formation were determined by comparing the changes of LPA levels in incubated and unincubated plasma. The IC50 of the compounds was calculated as a calculation inhibition rate, and the relative concentration at each well=the concentration at each well−the average concentration at baseline.
Inhibition rate %=(average relative concentration at control well−average relative concentration at test well)/average relative concentration at control well×100%. The curve was plotted with the inhibition rates as a y axis and the compound concentrations as an x axis, and fitting was performed by GraphPad Prism7.0 using log (inhibitor) and normalized response (variable slope).

[2] = Pharmacokinetic test in mice; type: in vivo; details: male, C57, mouse, plasma; for Cmax: read-out: C0 or Cmax
Description: Test objective: the pharmacokinetic characteristics and bioavailability of test compounds in mice were evaluated.
Test animals: thirty-six C57 male mice, about 25 g, 6-8 weeks old, purchased from Chengdu Ddossy Experimental Animals Co., Ltd., with the production license number of SCXK (CHUAN) 2020-030.
Vehicle for intravenous administration: 5% DMA+5% Solutol+90% Saline; vehicle for intragastric administration: 0.5% MC
(§1) Before and after the administration, 0.06 mL of blood was taken from the orbits under isoflurane anaesthesia and placed in an EDTAK2 centrifuge tube. The blood was centrifuged at 5000 rpm at 4° C. for 10 min, and plasma was collected. Time points for blood collection: 0 min, 5 min, 15 min, 30 min, 1 h, 2 h, 4 h, 6 h, 8 h, 10 h and 24 h. Before analysis and detection, all plasma samples were stored at −80° C.

[3] = Pharmacokinetic test in dogs; type: in vivo, male beagles; details: male, beagle, dog, plasma; for Cmax: read-out: C0 or Cmax
Description: Test objective: the pharmacokinetic characteristics and bioavailability of test compounds in dogs were evaluated.
Test animals: twelve male beagles, 8-10 kg, 0.5-1.5 years old, purchased from Beijing Marshall Biotechnology Co. Ltd., with the production license number of SCXK (JING) 2016-001.
Vehicle for intravenous administration: 5% DMSO+5% Solutol+90% Saline; • vehicle for intragastric administration: 1% DMSO+1% Solutol+98% (0.5% MC);
as §1, with “the administration, 1.0 mL of” for “the administration, 0.06 mL of”, “from the veins of the forelimbs and placed” for “from the orbits under isoflurane anaesthesia and placed”, “h, 10 h, 12 h and” for “h, 10 h and”

[4] = Pharmacokinetic test in monkeys; type: in vivo, Cynomolgus macaques; details: male, cynomolgus monkey, plasma; for Cmax: read-out: C0 or Cmax
Description: Test objective: the pharmacokinetic characteristics and bioavailability of test compounds in monkeys were evaluated.
Test animals: twelve male Cynomolgus macaques, 2.4-5.9 kg, 3-5.5 years old, purchased from Suzhou Xishan Zhongke Laboratory Animal Co., Ltd., with the production license number of SCXK (SU) 2018-0001.
Vehicle for intravenous administration: 5% DMSO+5% Solutol+90% Saline; • vehicle for intragastric administration: 1% DMSO+1% Solutol+98% (0.5% CMC-Na)
as §1, with “the administration, 1.0 mL of” for “the administration, 0.06 mL of”, “from the veins of the forelimbs and placed” for “from the orbits under isoflurane anaesthesia and placed”, “h, 10 h, 12 h and” for “h, 10 h and”

hERG potassium channel = hERG potassium channel (Homo sapiens, UniProt Q12809); assay: cell-based
Sequence of hERG potassium channel (Q12809 whole entry): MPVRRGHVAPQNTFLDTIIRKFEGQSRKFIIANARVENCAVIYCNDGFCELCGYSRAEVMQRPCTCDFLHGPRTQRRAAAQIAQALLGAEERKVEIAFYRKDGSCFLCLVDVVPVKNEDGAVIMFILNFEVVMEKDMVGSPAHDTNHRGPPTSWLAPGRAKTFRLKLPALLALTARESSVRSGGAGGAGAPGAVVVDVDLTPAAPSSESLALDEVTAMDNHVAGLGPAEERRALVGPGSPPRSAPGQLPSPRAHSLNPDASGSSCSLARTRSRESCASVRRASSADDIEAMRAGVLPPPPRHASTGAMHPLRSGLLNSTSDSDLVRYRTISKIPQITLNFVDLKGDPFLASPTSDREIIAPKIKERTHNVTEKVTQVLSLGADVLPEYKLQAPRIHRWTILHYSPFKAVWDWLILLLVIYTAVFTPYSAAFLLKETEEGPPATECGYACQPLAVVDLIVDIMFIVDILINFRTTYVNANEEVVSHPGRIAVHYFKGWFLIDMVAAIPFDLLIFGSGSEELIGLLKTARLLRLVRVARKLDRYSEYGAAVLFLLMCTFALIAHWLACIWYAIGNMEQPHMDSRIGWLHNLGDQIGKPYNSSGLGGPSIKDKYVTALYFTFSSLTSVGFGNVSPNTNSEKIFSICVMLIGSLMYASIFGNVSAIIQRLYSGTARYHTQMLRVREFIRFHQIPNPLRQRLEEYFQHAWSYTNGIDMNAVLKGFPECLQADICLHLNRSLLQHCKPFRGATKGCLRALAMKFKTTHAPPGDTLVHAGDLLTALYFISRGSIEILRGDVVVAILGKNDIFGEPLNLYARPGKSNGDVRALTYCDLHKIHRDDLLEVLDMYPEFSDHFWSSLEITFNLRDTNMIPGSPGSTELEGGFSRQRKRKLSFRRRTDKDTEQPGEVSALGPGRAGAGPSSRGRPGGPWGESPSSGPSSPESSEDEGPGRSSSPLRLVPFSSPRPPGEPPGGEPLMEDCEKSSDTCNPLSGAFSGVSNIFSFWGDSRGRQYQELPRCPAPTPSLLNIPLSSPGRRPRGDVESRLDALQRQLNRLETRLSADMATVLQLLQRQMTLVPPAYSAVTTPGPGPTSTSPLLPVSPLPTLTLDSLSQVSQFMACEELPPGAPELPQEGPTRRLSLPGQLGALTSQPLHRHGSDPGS
Description: The effect of the example compounds on the current of an hERG potassium channel (human Ether-à-go-go Related Gene potassium channel) was tested by 10 means of an electrophysiological manual patch-clamp method.
HEK293 cell lines stably expressing hERG ion channels were purchased from Invitrogen.
A test compound was firstly dissolved in DMSO and prepared into a stock solution with a final concentration of 30 mM. […] Five working solutions with different gradient concentrations were used to determine the potential inhibitory effect of the compound on the hERG potassium channel and used to fit a dose-response curve and calculate IC50.
A small slide carrying HEK293 cells in a culture dish was placed in a perfusion tank on a micromanipulator. • 2. […] The peak value of the tail current was the magnitude of hERG currents. • 9 The hERG currents used to detect the test compounds were continuously recorded for 120 seconds prior to administration, thereby evaluating the stability of test cells generating hERG currents. […] The inhibitory effects of the test compounds on hERG currents were tested as follows: firstly, the hERG current measured in the extracellular fluid containing 0.1% DMSO was used as a test baseline. […] Upon completion of each perfusion, waiting about 5 min allowed the compounds to be fully acted on the cells, and the hERG currents were recorded synchronously. […]

## [2H]C([2H])([2H])N(c1nc(-c2ccc(F)cc2)c(C#N)s1)c1c(CC)nn2cc(F)c(N3CCN(CC(=O)N4CC(O)C4)CC3)cc12 [Compound 3, 2-((2-ethyl-6-fluoro-5-(4-(2-(3-hydroxyazetidin-1-yl)-2-oxoethyl)piperazin-1-yl)pyrazolo[1,5-a]pyridin-3-yl)(methyl-d3)amino)-4-(4-fluorophenyl)thiazole-5-carbonitrile]
[1]; LPA 18:2 by LC-MS/MS, read-out: IC50 for inhibiting LPA formation (18:2)
  IC50: 0.0427 µM
[1]; LPA 20:4 by LC-MS/MS, read-out: IC50 for inhibiting LPA formation (20:4)
  IC50: 0.0445 µM
[2]; IV 1 mg/kg
  AUC: 1490 ng·h/mL
  half-life: 1.56 h
  Cmax: 1110 ng/mL
[2]; PO 10 mg/kg
  AUC: 9600 ng·h/mL
  Tmax: 0.25 h
  half-life: 2.14 h
  Cmax: 1300 ng/mL
[2]; PO 10 mg/kg vs IV 1 mg/kg
  bioavailability: 64.5%
[3]; IV 1 mg/kg
  AUC: 6840 ± 883 ng·h/mL
  half-life: 6.96 ± 1.5 h
  Cmax: 1490 ± 451 ng/mL
[3]; PO 2 mg/kg
  AUC: 15900 ± 2980 ng·h/mL
  Tmax: 1.67 ± 0.58 h
  half-life: 7.19 ± 0.75 h
  Cmax: 1620 ± 176 ng/mL
[3]; PO 2 mg/kg vs IV 1 mg/kg
  bioavailability: 116 ± 22%
[4]; IV 1 mg/kg
  AUC: 2010 ± 621 ng·h/mL
  half-life: 2.96 ± 1 h
  Cmax: 1040 ± 116 ng/mL
[4]; PO 5 mg/kg
  AUC: 3120 ± 492 ng·h/mL
  Tmax: 1.33 ± 0.58 h
  half-life: 4.02 ± 0.59 h
  Cmax: 657 ± 170 ng/mL
hERG potassium channel
  IC50: 23.1 µM
